According to ChEMBL document CHEMBL6120983, “Synthesis and Structure-Activity Relationship of Covalent Inhibitors of SARS-CoV-2 Papain-Like Protease with Antiviral Potency” (Bioorg Med Chem Lett, 2025):

Legend:
[1] = Cytotoxicity against human A549-ACE2 cells assessed as reduction in cell viability; type: toxicity, cell-based
[2] = AUC (0 to last) in dog at 2 mg/kg, iv; type: ADME, organism-based, Canis lupus familiaris; conditions: in vivo
[3] = AUC (0 to last) in dog at 20 mg/kg, po; type: ADME, organism-based, Canis lupus familiaris; conditions: in vivo
[4] = Clearance in dog at 2 mg/kg, iv; type: ADME, organism-based, Canis lupus familiaris; conditions: in vivo
SARS-CoV-2 = assay: Antiviral activity against SARS CoV-2 infected in human HeLa-ACE2 assessed as reduction in viral replication incubated for 24 hrs; type: functional; conditions: Severe acute respiratory syndrome coronavirus 2, HeLa-ACE2
[5] = MRT (0 to last) in dog at 2 mg/kg, iv; type: ADME, organism-based, Canis lupus familiaris; conditions: in vivo
[6] = Half life in dog at 20 mg/kg, po; type: ADME, organism-based, Canis lupus familiaris; conditions: in vivo
[7] = Half life in dog at 2 mg/kg, iv; type: ADME, organism-based, Canis lupus familiaris; conditions: in vivo
[8] = Intrinsic clearance in mouse liver microsomes; type: ADME, Microsome; conditions: read-out: CLH
[9] = Tlast in dog at 20 mg/kg, po; type: ADME, organism-based, Canis lupus familiaris; conditions: in vivo
[10] = Cmax in dog at 20 mg/kg, po; type: ADME, organism-based, Canis lupus familiaris; conditions: in vivo
[11] = Plasma protein binding in human; type: ADME, cell-free; conditions: read-out: PPB (converted)
[12] = Volume of distribution in dog at 2 mg/kg, iv; type: ADME, organism-based, Canis lupus familiaris; conditions: in vivo
[13] = Clearance in dog at 20 mg/kg, po; type: ADME, organism-based, Canis lupus familiaris; conditions: in vivo
[14] = Tlast in dog at 2 mg/kg, iv; type: ADME, organism-based, Canis lupus familiaris; conditions: in vivo
[15] = Lipophilicity, logD of compound; type: physicochemical; conditions: octanol/water
[16] = MRT (0 to last) in dog at 20 mg/kg, po; type: ADME, organism-based, Canis lupus familiaris; conditions: in vivo
[17] = Oral bioavailability in dog at 20 mg/kg; type: ADME, organism-based, Canis lupus familiaris; conditions: in vivo
[18] = Cmax in dog at 2 mg/kg, iv; type: ADME, organism-based, Canis lupus familiaris; conditions: in vivo
[19] = biological target: Replicase polyprotein 1ab (Severe acute respiratory syndrome coronavirus 2, UniProt P0DTD1); assay: Inhibition of SARS-CoV-2 papain-like protease using Z-Arg-Leu-Arg-Gly-Gly-AMC as substrate incubated for 15 mins
[20] = Ratio of CC50 for cytotoxicity against human A549-ACE2 cells assessed as reduction in cell viability to EC90 for antiviral activity against SARS CoV-2 infected in human HeLa-ACE2 assessed as reduction in viral replication; type: toxicity, cell-based

Structure (SMILES)	CC50 ([1]; a549-ace2)	EC90 (SARS-CoV-2)	IC50 [19]	CC50 ([1]; A549-ACE2 cells)	other results
COC(=O)/C=C/C(=O)NNC(=O)CCc1ccccc1C(=O)N[C@H](C)c1cccc2ccccc12	29.9 µM	0.49 µM	–	–	AUC(0-t) [2]: 0.315 µg·h/mL; AUC(0-t) [3]: 0.091 µg·h/mL; clearance [4]: 6.42 L/h/kg; MRT last [5]: 6.84 min; half-life [6]: 72.6 min; half-life [7]: 6 min; microsomal CLint [8]: 144 µL/min/mg; Tlast [9]: 8 h; Cmax [10]: 0.084 µg/mL; fraction unbound [11]: 0.049; Vd [12]: 0.742 L/kg; CL/F [13]: 223 L/h/kg; Tlast [14]: 1 h; logD [15]: 3; MRT last [16]: 97.2 min; bioavailability [17]: 2.9%; Cmax [18]: 2.84 µg/mL
C[C@@H](NC(=O)c1ccccc1CCC(=O)NNC(=O)/C=C/C(=O)OCC1CCCC1)c1cccc2ccccc12	69.5 µM	0.31 µM	1.62 µM	–	–
C[C@@H](NC(=O)c1ccccc1CCC(=O)NNC(=O)CC#N)c1cccc2ccccc12	–	> 9.6 µM	9.5 µM	> 99 µM	–
COC(=O)/C=C/C(=O)NNC(=O)CCc1ccccc1C(=O)N[C@H](C)c1cccc(-c2cncnc2)c1	–	9.55 µM	0.35 µM	> 99 µM	–
C[C@@H](NC(=O)c1ccccc1CCC(=O)NNC(=O)/C=C/C(=O)OCc1ncccn1)c1cccc2ccccc12	30.1 µM	3.03 µM	0.35 µM	–	–
COC(=O)/C=C\C(=O)NNC(=O)CCc1ccccc1C(=O)N[C@H](C)c1cccc2ccccc12	34.6 µM	0.71 µM	–	–	–
C[C@@H](NC(=O)c1ccccc1CCC(=O)NNC(=O)/C=C/C(=O)OCc1ccccc1)c1cccc2ccccc12	98.9 µM	0.78 µM	0.52 µM	–	–
C[C@@H](NC(=O)c1ccccc1CCC(=O)NNC(=O)/C=C/C(=O)OCc1ccc2ccccc2n1)c1cccc2ccccc12	13.6 µM	1.14 µM	0.45 µM	–	–
C[C@@H](NC(=O)c1ccccc1CCC(=O)NNC(=O)/C=C/C(=O)OCc1nccs1)c1cccc2ccccc12	16 µM	9.23 µM	0.34 µM	–	–
C[C@@H](NC(=O)c1ccccc1CCC(=O)NNC(=O)/C=C/c1ncco1)c1cccc2ccccc12	–	> 9.6 µM	44.5 µM	> 99 µM	–
CCOC(=O)/C=C/C(=O)NNC(=O)CCc1ccccc1C(=O)N[C@H](C)c1cccc(-c2cccs2)c1	–	0.21 µM	0.14 µM	–	AUC(0-t) [2]: 0.362 µg·h/mL; AUC(0-t) [3]: 0.062 µg·h/mL; clearance [4]: 5.71 L/h/kg; selectivity ratio [20]: 56.7; MRT last [5]: 7.02 min; half-life [6]: 157 min; half-life [7]: 6.48 min; microsomal CLint [8]: 618 µL/min/mg; Tlast [9]: 8 h; Cmax [10]: 0.02 µg/mL; fraction unbound [11]: 0.014; Vd [12]: 0.681 L/kg; CL/F [13]: 306 L/h/kg; Tlast [14]: 1 h; MRT last [16]: 176 min; bioavailability [17]: 1.9%; Cmax [18]: 3.22 µg/mL
CNC(=O)/C=C/C(=O)NNC(=O)CCc1ccccc1C(=O)N[C@H](C)c1cccc2ccccc12	–	> 9.6 µM	16.2 µM	> 99 µM	–
C[C@@H](NC(=O)c1ccccc1CCC(=O)NNC(=O)/C=C/C(=O)N(C)C)c1cccc2ccccc12	–	> 9.6 µM	18.5 µM	> 99 µM	–
COc1ccc(COC(=O)/C=C/C(=O)NNC(=O)CCc2ccccc2C(=O)N[C@H](C)c2cccc3ccccc23)cc1OC	–	0.26 µM	1.01 µM	> 99 µM	–
C[C@@H](NC(=O)c1ccccc1CCC(=O)NNC(=O)/C=C/C(=O)OC(C)(C)C)c1cccc2ccccc12	64 µM	1.75 µM	0.24 µM	–	–
CC(=O)/C=C/C(=O)NNC(=O)CCc1ccccc1C(=O)N[C@H](C)c1cccc2ccccc12	–	12.9 µM	27.2 µM	> 99 µM	–
COC(=O)/C=C/CNC(=O)CCc1ccccc1C(=O)N[C@H](C)c1cccc2ccccc12	87.9 µM	> 9.6 µM	26.2 µM	–	–

Structure (SMILES)	CC50 ([1]; a549-ace2)	EC90 (SARS-CoV-2)	IC50 [19]	CC50 ([1]; A549-ACE2 cells)	other results
CC(C)OC(=O)/C=C/C(=O)NNC(=O)CCc1ccccc1C(=O)N[C@H](C)c1cccc2ccccc12	59.3 µM	0.56 µM	0.24 µM	–	–
C[C@@H](NC(=O)c1ccccc1CCC(=O)NNC(=O)/C=C/C(=O)OC1CCCCC1)c1cccc2ccccc12	–	0.41 µM	0.96 µM	> 99 µM	–
C[C@@H](NC(=O)c1ccccc1CCC(=O)NNC(=O)/C=C/C(=O)O)c1cccc2ccccc12	–	> 9.6 µM	2.6 µM	> 99 µM	–
C=C(CC(=O)NNC(=O)CCc1ccccc1C(=O)N[C@H](C)c1cccc2ccccc12)C(=O)OC	6.1 µM	8.3 µM	17.9 µM	–	–
C[C@@H](NC(=O)c1ccccc1CCC(=O)NNC(=O)COC(F)(F)F)c1cccc2ccccc12	–	> 9.6 µM	52.9 µM	> 99 µM	–
C[C@@H](NC(=O)c1ccccc1CCC(=O)NNC(=O)/C=C/C(=O)OCCC(F)(F)F)c1cccc2ccccc12	61.9 µM	1.26 µM	0.25 µM	–	–
CCCCOC(=O)/C=C/C(=O)NNC(=O)CCc1ccccc1C(=O)N[C@H](C)c1cccc2ccccc12	–	0.18 µM	0.24 µM	> 99 µM	–
CCOC(=O)/C=C/C(=O)NNC(=O)CCc1ccccc1C(=O)N[C@H](C)c1cccc2ccccc12	44.7 µM	0.31 µM	0.19 µM	–	–
COC(=O)/C=C/C(=O)NNC(=O)CCc1ccccc1C(=O)N[C@H](C)c1cccc(-c2cn[nH]c2)c1	–	3.58 µM	0.21 µM	> 99 µM	–
CC(=O)C(=O)NNC(=O)CCc1ccccc1C(=O)N[C@H](C)c1cccc2ccccc12	–	> 9.6 µM	37.3 µM	> 99 µM	–
COC(=O)/C=C/C(=O)NNC(=O)CCc1ccccc1C(=O)N[C@H](C)c1cccc(C2=CCOCC2)c1	48.4 µM	1.24 µM	0.29 µM	–	–
C[C@@H](NC(=O)c1ccccc1CCC(=O)NNC(=O)C(F)Cl)c1cccc2ccccc12 (stereo not given in full)	–	> 9.6 µM	15.8 µM	> 99 µM	–
CC#CC(=O)NNC(=O)CCc1ccccc1C(=O)N[C@H](C)c1cccc2ccccc12	68.9 µM	> 9.6 µM	11.3 µM	–	–
C[C@@H](NC(=O)c1ccccc1CCC(=O)NNC(=O)/C=C/C#N)c1cccc2ccccc12	13.1 µM	15.2 µM	1.9 µM	–	–
COC(=O)/C=C/C(=O)NNC(=O)CCc1ccccc1C(=O)N[C@H](C)c1cccc(-c2cc3ccccc3o2)c1	59 µM	0.12 µM	0.25 µM	–	–
C[C@@H](NC(=O)c1ccccc1CCC(=O)NNC(=O)/C=C/C(=O)OC1CCC1)c1cccc2ccccc12	64.8 µM	0.27 µM	0.33 µM	–	–
